Data on four molecules can be found in ChEMBL document CHEMBL5055681, “Optimized protocols for assessing libraries of poorly soluble sortase A inhibitors for antibacterial activity against medically-relevant bacteria, toxicity and enzyme inhibition” (Bioorg Med Chem, 2021).

For orientation: MIC means the least concentration at which growth counts as inhibited. As usually defined, the IC50 is the concentration that gives 50% inhibition.

One series concerns Pseudomonas aeruginosa. Nature of the series: Antimicrobial activity against Pseudomonas aeruginosa ATCC 27853 assessed as bacterial growth inhibition measured after 24 hrs by resazurin dye based broth microdilution method. The settings on record: ATCC 27853, 24 h.
Series [1] can be described thus: Inhibition of Staphylococcus aureus sortase A using Abz-LPETGK(Dnp)-NH2 fluorescent peptide as a substrate assessed as substrate cleavage measured over 60 mins by FRET assay.
In the next series the test system is Escherichia coli. Kind of series: Antimicrobial activity against Escherichia coli ATCC 25922 assessed as bacterial growth inhibition measured after 24 hrs by resazurin dye based broth microdilution method. Type of series: functional. A general note: The colour change of resazurin is a common sign of viable cells or microbes.
For series [2], the system named is Staphylococcus aureus. Nature of the series: Antimicrobial activity against Staphylococcus aureus ATCC 25923 assessed as bacterial growth inhibition measured after 24 hrs by resazurin dye based broth microdilution method. Type of series: functional.
In series [3] the test system is HEK293. Kind of series: Cytotoxicity against HEK293 cells assessed as reduction in cell viability at 31.3 to 1000 ug/ml measured after 24 hrs by resazurin dye based cell viability assay. Conditions: human, hek293, 24 h, dose 31.3-1000 µg/ml.
Series [4] relates to Staphylococcus aureus. Nature of the series: Antimicrobial activity against Staphylococcus aureus MRSA ATCC 43300 assessed as bacterial growth inhibition measured after 24 hrs by resazurin dye based broth microdilution method. Type of series: functional.
Series [5] deals with Staphylococcus aureus. Kind of series: Antimicrobial activity against Staphylococcus aureus ATCC 25923 assessed as bacterial growth inhibition measured after 24 hrs by CLSI based agar dilution method. Type of series: functional.
For series [6], the system named is Staphylococcus aureus. Nature of the series: Antimicrobial activity against Staphylococcus aureus ATCC 25923 assessed as zone of inhibition at 125 ug/ml measured after 24 hrs by disc diffusion method. Type of series: functional, organism-based. Conditions: dose 125.0 µg/ml.
Series [7] is described as follows: Ratio of MIC for antimicrobial activity against Staphylococcus aureus ATCC 25923 to IC50 for inhibition of Staphylococcus aureus sortase A using Abz-LPETGK(Dnp)-NH2 fluorescent peptide as substrate. The series is classed as toxicity.
Series [8] in a line: Solubility of the compound in 5% DMSO in MHB assessed as precipitation at up to 3.9 ug/ml measured over 24 hrs. The series is classed as physicochemical. The settings on record: dose < 3.9 µg/ml.
In series [9] the test system is Staphylococcus aureus. Nature of the series: Antimicrobial activity against Staphylococcus aureus ATCC 25923 assessed as zone of inhibition at 500 ug/ml measured after 24 hrs by disc diffusion method. The series is classed as functional.
Series [10] can be described thus: Solubility of the compound in 5% DMSO in MHB assessed as precipitation at up to 2.0 ug/ml measured over 24 hrs. The series is classed as physicochemical. The settings on record: dose < 2 µg/ml.
The test system of series [11] is Staphylococcus aureus. Nature of the series: Antimicrobial activity against Staphylococcus aureus ATCC 25923 assessed as zone of inhibition at 250 ug/ml measured after 24 hrs by disc diffusion method. The series is classed as functional, organism-based. The settings on record: dose 250.0 µg/ml.
For series [12], the system named is HEK293. Nature of the series: Cytotoxicity against HEK293 cells assessed as reduction in cell viability at 62.5 to 2000 ug/ml measured after 24 hrs by resazurin dye based cell viability assay. Conditions: human, hek293, 24 h, dose 62.5-2000 µg/ml.
The nature of series [13]: Solubility of the compound in 5% DMSO in MHB assessed as precipitation at up to 500 ug/ml measured over 24 hrs. Type of series: physicochemical. Conditions: dose < 500 µg/ml.

Each structure is given as a SMILES string. Values after ≈ are worked out from the molar mass of the structure shown. Active and inactive are the calls of the source. No cut-off for these calls is given here.

For the molecule `COc1ccc2cc3[n+](cc2c1OC)CCc1cc2c(cc1-3)OCO2` [BERBERINE], the minimum inhibitory concentration (MIC) in the series on Pseudomonas aeruginosa is 500 µg/mL; with Escherichia coli it was 250 µg/mL; in the series on Staphylococcus aureus [2] it was 125 µg/mL; with Staphylococcus aureus [4], 125 µg/mL; in the series with Staphylococcus aureus [5], 125 µg/mL. In series [1], the IC50 amounted to 6.9 µg/mL. Also, the Activity entry in the series with HEK293 [3] is reported as “Non-Toxic”. In the series on Staphylococcus aureus [6], the result was Active. Further, the Ratio in series [7] came to 18.1. In addition, the solubility result in series [8] is listed as “Soluble”.
Take `O=C(/C=C/c1ccccc1)c1ccccc1` [CHALCONE]: the minimum inhibitory concentration (MIC) with Pseudomonas aeruginosa was determined as 500 µg/mL (≈ 2400 µM); in the series on Escherichia coli it was 500 µg/mL (≈ 2400 µM); in the series on Staphylococcus aureus [2] it was 125 µg/mL (≈ 600 µM); in the series with Staphylococcus aureus [4], 125 µg/mL (≈ 600 µM); in the series with Staphylococcus aureus [5], 125 µg/mL (≈ 600 µM). For the same molecule, in the series on Staphylococcus aureus [9] (read-out: DIZ), the zone of inhibition at 500 µg/mL was found to be 16 mm. Further, in [1], the concentration for half-maximal inhibition (IC50) is 25.2 µg/mL (≈ 121 µM). Further, the Activity entry with HEK293 [3] is on record as “Toxic”. In addition, in series [10], the solubility result is given as “Soluble”. Further, the result in the series with Staphylococcus aureus [11] was Active. The Ratio in [7] is given as 5.
As for `COc1cc(/C=C/C(=O)CC(=O)/C=C/c2ccc(O)c(OC)c2)ccc1O` [CURCUMIN], the MIC with Pseudomonas aeruginosa, in the series on Escherichia coli, in the series on Staphylococcus aureus [2], in the series on Staphylococcus aureus [4] and in the series on Staphylococcus aureus [5] was 250 µg/mL (≈ 679 µM) throughout. The outcome in the series with Staphylococcus aureus [9] (dose 500.0 µg/ml) was Active. For the same molecule, the IC50 in [1] amounted to 42.2 µg/mL (≈ 115 µM). Further, the Activity entry in the series on HEK293 [12] was “Toxic”. The solubility result in series [13] is on record as “Insoluble”. Moreover, in series [7], the Ratio came out at 7.1.
Consider `O=c1c(O)c(-c2ccc(O)c(O)c2)oc2cc(O)cc(O)c12` [QUERCETIN], for which the MIC in the series with Pseudomonas aeruginosa, in the series with Escherichia coli, in the series on Staphylococcus aureus [2], in the series on Staphylococcus aureus [4] and in the series with Staphylococcus aureus [5] was 250 µg/mL (≈ 827 µM) each time. In [1], the IC50 amounted to 35.1 µg/mL (≈ 116 µM). In the series on HEK293 [12], the Activity entry is “Non-Toxic”. For the same molecule, the result with Staphylococcus aureus [11] was Active. In [13], the solubility entry is given as “Insoluble”. For the same molecule, in series [7], the Ratio worked out at 6.
